Holding throughout (format): in vivo
The subject of one experiment is Avena fatua (AVEFA). Kind of experiment: Glasshouse weed test, pinoxaden with adjuvants. Particulars: Table 12, Example 8: pinoxaden 7.5 or 15 g/ha; adjuvant 0.2% v/v; Atlas G5000 in spray tank; mean over two rates, three replicates, 7, 14 and 20 days. Here is the method:
(§1) The aromatic ester Finsolv® TN (C12-C15 alkyl benzoate) was tested in a glasshouse against four weed species using the herbicide pinoxaden. An agrochemical composition was prepared containing 0.2% v/v of the adjuvant in a track sprayer and was applied at a volume of 200 liters per hectare. Pinoxaden was applied at either 7.5 or 15 grams of pesticide per hectare on each of the weed species. […] The weed species and their growth stage at spraying were Alopecurus myosuroides (ALOMY; growth stage 13), Avena fatua (AVEFA; growth stage 12); Lolium perenne (LOLPE; growth stage 13), Setaria viridis (SETVI; growth stage 14).
(§2) Each spray test was replicated three times. The efficacy of the herbicide was assessed visually and expressed as a percentage of the leaf area killed. Samples were assessed at time periods of 7, 14 and 20 days following application. The results shown in Table 12 below are mean averages over the two rates of pinoxaden, three replicates and the three assessment timings, and are compared to the efficacy of pinoxaden in the absence of an adjuvant and pinoxaden in the presence of triethylhexyl phosphate.

A further experiment deals with Lolium perenne (LOLPE). In words: Glasshouse weed test, pinoxaden with adjuvants. Particulars: Table 12, Example 8: pinoxaden 7.5 or 15 g/ha; adjuvant 0.2% v/v; Atlas G5000 in spray tank; mean over two rates, three replicates, 7, 14 and 20 days. Here is the method: as §1, §2
The subject of experiment [1] is Alopecurus myosuroides (ALOMY). Kind of experiment: Glasshouse weed test, pinoxaden with adjuvants. Particulars: Table 12, Example 8: pinoxaden 7.5 or 15 g/ha; adjuvant 0.2% v/v; Atlas G5000 in spray tank; mean over two rates, three replicates, 7, 14 and 20 days. Here is the method: as §1, §2
A further experiment relates to Setaria viridis (SETVI). In words: Glasshouse weed test, pinoxaden with adjuvants. Particulars: Table 12, Example 8: pinoxaden 7.5 or 15 g/ha; adjuvant 0.2% v/v; Atlas G5000 in spray tank; mean over two rates, three replicates, 7, 14 and 20 days. As for the experimental part: as §1, §2
Experiment [2] relates to four weed species (ALOMY, AVEFA, LOLPE, SETVI). In words: Glasshouse weed test, pinoxaden with adjuvants, mean across species. The following applies: mean over two rates. Here is the method: as §1, §2
A second experiment was conducted to assess the efficacy of Finsolv® TN as an adjuvant for pinoxaden. This was carried out as outlined above, with the following change: samples were assessed at 14 and 20 days post application. The results shown below in Table 13 are mean averages over the two rates of pinoxaden, three replicates, the two assessment timings, and the four weed species, and are compared to the efficacy of pinoxaden in the absence of an adjuvant and pinoxaden in the presence of the common adjuvant methyl oleate.
(§3) An agrochemical composition was prepared containing 0.2% v/v of the adjuvant in a track sprayer and was applied at a volume of 200 liters per hectare. Pinoxaden was applied at either 7.5 or 15 grams of pesticide per hectare on each of the weed species. […] The weed species and their growth stage at spraying were Alopecurus myosuroides (ALOMY; growth stage 13), Avena fatua (AVEFA; growth stage 12); Lolium perenne (LOLPE; growth stage 13), Setaria viridis (SETVI; growth stage 14).
Each spray test was replicated three times. The efficacy of the herbicide was assessed visually and expressed as a percentage of the leaf area killed. Samples were assessed at time periods of 7, 14 and 20 days following application. The results shown in Table 17 below are mean averages over the two rates of pinoxaden, three replicates and the three assessment timings, and are compared to the efficacy of pinoxaden in the absence of an adjuvant and pinoxaden in the presence of Brij®96.
as §3, with “hectare. The adjuvant oils were emulsified using a small amount of the surfactant Pluronic® PE 10500, which was present in the composition at a concentration of 0.02% v/v.” for “hectare.”, “13-14).” for “14).”
Each spray test was replicated three times. The efficacy of the herbicide was assessed visually and expressed as a percentage of the leaf area killed. Samples were assessed at time periods of 14 and 21 days following application. The results shown in Table 18 below are mean averages over the two rates of pinoxaden, three replicates and the two assessment timings, and are compared to the efficacy of pinoxaden in the absence of an adjuvant and pinoxaden in the presence of tris 2ethylhexylphosphate (TEHP).
The aromatic esters Finsolv® TN and the aromatic ester ethoxylate Dermol 25-3B were tested in a glasshouse against four weed species using the herbicide pinoxaden. […]

Experiment [3] concerns four weed species (ABUTH, CHEAL, DIGSA, SETVI). Kind of experiment: Glasshouse weed test, nicosulfuron with adjuvants, mean across species. The following applies: Table 27, Example 24: nicosulfuron 30 or 60 g/ha; mean over two rates, three replicates, 14 and 21 days. As for the experimental part:
The aromatic ester Finsolv® TN (C12-C15 alkyl benzoate) was tested in a glasshouse against four weed species using the herbicide nicosulfuron. An agrochemical composition was prepared containing 0.2% v/v of the adjuvant in a track sprayer, and was applied at a volume of 200 liters per hectare. Nicosulfuron was applied at either 30 or 60 grams of pesticide per hectare on each of the weed species. The weed species and their growth stage at spraying were Abutilon theophrasti (ABUTH; growth stage 13), Chenopodium album (CHEAL; growth stage 14), Digitaria sanguinalis (DIGSA; growth stage 13), and Setaria viridis (SETVI; growth stage 13).
Each spray test replicated three times. The efficacy of the herbicide was assessed visually and expressed as a percentage of the leaf area killed. Samples were assessed at time periods of 7, 14 and 20 days following application. The results shown in Table 6 below are mean averages over the two rates of nicosulfuron, three replicates and the three assessment timings, and are compared to the efficacy of nicosulfuron in the absence of an adjuvant, and nicosulfuron in the presence of the commercially available tank-mix adjuvant, Atplus411F®.
A second experiment was conducted to assess the efficacy of Finsolv® TN as an adjuvant in compositions of nicosulfuron. This was carried out as outlined above, with the following change: samples were assessed at 14 and 20 days post application.
The results shown in Table 7 below are mean averages over the two rates of nicosulfuron, three replicates and the two assessment timings, and are compared to the efficacy of nicosulfuron in the absence of an adjuvant, and nicosulfuron in the presence of the commercially available tank-mix adjuvant, Atplus411F®.
The aromatic esters Benzoate 1 (see Example 9), Benzoflex 354 (2,2,4-trimethyl-1,3-pentanediol dibenzoate) and Finsolv® SB (stearyl benzoate) were tested in a glasshouse against four weed species using the herbicide nicosulfuron. Nicosulfuron was applied at either 30 or 60 grams of pesticide per hectare on each of the weed species. The weed species and their growth stage at spraying were Abutilon theophrasti (ABUTH; growth stage 13), Chenopodium album (CHEAL; growth stage 14), Digitaria sanguinalis (DIGSA; growth stage 13), and Setaria viridis (SETVI; growth stage 13).
Each spray test replicated three times. The efficacy of the herbicide was assessed visually and expressed as a percentage of the leaf area killed. Samples were assessed at time periods of 14 and 20 days following application. The results shown in Table 14 below are mean averages over the two rates of nicosulfuron, three replicates and the two assessment timings, and are compared to the efficacy of nicosulfuron in the absence of an adjuvant, and nicosulfuron in the presence of the commercially available tank-mix adjuvant, Atplus411F®.
An agrochemical composition was prepared containing 0.2% v/v of the adjuvant in a track sprayer and was applied at a volume of 200 liters per hectare. The adjuvant oils were emulsified using a small amount of the surfactant Pluronic® PE 10500, which was present in the composition at a concentration of 0.02% v/v. Nicosulfuron was applied at either 30 or 60 grams of pesticide per hectare on each of the weed species. The weed species and their growth stage at spraying were Abutilon theophrasti (ABUTH; growth stage 13), Chenopodium album (CHEAL; growth stage 14-15), Digitaria sanguinalis (DIGSA; growth stage 14), and Setaria viridis (SETVI; growth stage 13-14).
Each spray test replicated three times. The efficacy of the herbicide was assessed visually and expressed as a percentage of the leaf area killed. Samples were assessed at time periods of 14 and 21 days following application. […]

For the compound `CCc1cc(C)cc(CC)c1-c1c(OC(=O)C(C)(C)C)n2n(c1=O)CCOCC2` [Pinoxaden, pinoxaden], in the experiment on Avena fatua (AVEFA), the “Mean percentage kill AVEFA” value is 2.8 B %. In addition, the “Mean percentage kill LOLPE” value in the experiment on Lolium perenne (LOLPE) stood at 5.0 B %. Moreover, the “Mean percentage kill ALOMY” value in experiment [1] came to 1.1 B %. The “Mean percentage kill SETVI” value with Setaria viridis (SETVI) was 0.8 B %. The “Mean percentage kill, Mean across species” value was found to be 2.43 B % in experiment [2] (Table 12, Example 8: pinoxaden 7.5 or 15 g/ha, adjuvant 0.2% v/v, Atlas G5000 in spray tank, three replicates, 7, 14 and 20 days); 0.5 B % in experiment [2] (Table 13, Example 8 second experiment: pinoxaden 7.5 or 15 g/ha, adjuvant 0.2% v/v, three replicates, 14 and 20 days, four weed species); 1.8 C % in experiment [2] (Table 17, Example 13: pinoxaden 7.5 or 15 g/ha, adjuvant 0.2% v/v, Atlas G5000 in spray tank, three replicates, 7, 14 and 20 days); 2.6B % in experiment [2] (Table 18, Example 14: pinoxaden 7.5 or 15 g/ha, adjuvant 0.2% v/v emulsified with Pluronic PE 10500 0.02% v/v, three replicates, 14 and 21 days); 3.6E % in experiment [2] (Table 22, Example 18: absence of an adjuvant, pinoxaden 7.5 or 15 g/ha, three replicates, 14 and 21 days); 4.0C % in experiment [2] (Table 26, Example 23: pinoxaden 7.5 or 15 g/ha, adjuvant 0.2% v/v, Atlas G5000, three replicates, 14 and 21 days). The “Mean percentage kill, Mean across species” value in experiment [2] (Table 32, Example 32: pinoxaden 7.5 or 15 g/ha, adjuvant 0.2% v/v, Atlas G5000, three replicates, 14 and 21 days) turned out to be 3.6B %; in experiment [3], 46.6C %.

The values above are taken from patent US10206388B2, “Formulation component” (SYNGENTA LIMITED, priority 2011, dated 2019).
